{"source": "patent US20080260644A1", "about": "“CHLORIDE TRANSPORT UPREGULATION FOR THE TREATMENT OF TRAUMATIC BRAIN INJURY” (priority 2005, published 2008)", "key": {"dentate granule cells": {"tested_on": "dentate granule cells", "assay": "Gramicidin perforated patch recording of the membrane potential response to GABA in dentate granule cells in brain slices", "format": "cell-based, mouse", "experimental": "Brain slices were prepared as previously reported (Witgen et al. (2005) Neuroscience, 133:1-15). Perforated patch recordings were conducted at room temperature from visually identified DG neurons using infrared differential interference contrast video microscopy (Stuart et al. (1993) Pflugers Arch., 423:511-8). Cells were voltage clamped at −60 mV, and signals were recorded and amplified with Axopatch 200 (Axon instruments, Foster city, CA), filtered at 2 kHz, digitized, and stored on a PC microcomputer for off line analysis. Electrodes were pulled to a resistance between 6 and 8 MΩ when filled with an internal solution composed of in (mM): 100 KCl, 10 Hepes, pH 7.4 (KOH), on a two stage puller (Sutter instruments, Novato, Calif.). Gramicidin (Sigma, St. Louis) was dissolved in dimethyllsulfuxide (DMSO, Sigma) (1-2 mg/ml) then diluted in the pipette filling solution (1:1000). Progress of membrane patch perforation was evaluated by following the decrease in access resistance (Ra) and recordings were begun once Ra had stabilized ([…]). Current-voltage (IV) relationships were generated using a voltage ramp (−110 to +40 ata rate of 107 mV/ms) in the absence and presence of agonist (GABA, 100 μM, applied 125 ms, 40-60 PSI using a Picospritzer II, General Valve Corporation, Fairfield, N.J.). For chloride fluorescence experiments, the internal solution was composed of (in mM) Kgluconate, 145; MgCl2, 2; BAPTA, 0.1; KCl, 2.5; NaCl, 2.5; HEPES, 10; GTP-Tris, 0.5; Mg-ATP, 2; pH 7.4 (KOH; Vhold=0 mV). For low K^+ experiments, KCl concentration was reduced from 3 to 1 mM while the concentration of NaCl was increased to maintain tonicity.\nIn order to investigate the functional consequences of reduced KCC2 expression in DG from injured animals, gramacidin perforated patch recordings were performed in dentate granule cells in brain slices derived from sham and FPI animals. Current-voltage (1-V) relationships were created using a voltage ramp that stepped the membrane voltage from a holding potential of −60 mV to −110 mV for 200 ms and then ramped the voltage from −110 to +40 mV at a rate of 107 mV/msec. I-V relationships were plotted by subtracting ramp currents recorded in control solution (aCSF) from currents recorded in the presence of ionophoresed agonist (GABA 100 μm) in brain slices from both sham (FIG. 2A) and FPI (FIG. 2B) animals. […] Mean EGABA values were −72±4.3 (n=7) in sham slices and −51±4.0 mV (n=16) in FPI slices. To ensure that the perforated patch configuration remained intact during the experiment, in several dentate granule cells (recorded in slices from both sham and injured animals) the patch was subsequently ruptured to enter into the whole cell configuration. […]"}, "dentate gyrus": {"tested_on": "dentate gyrus", "assay": "Dentate gyrus throughput index (TI), voltage sensitive dye fluorescence in hippocampal slices", "format": "cell-based, mouse", "description": "Slices were stimulated in the perforant pathway with one theta burst stimulation (TBS) (5 pulses of 50 μA at 100 Hz). Circles (kernels) represent average fluorescent signals in the DG and hilus respectively. FIG. 5B is a graph of the percent throughput of sham and injured (LFPI) mice.\nNormal hippocampal function is directly determined by a balance between neuronal excitation and inhibition. Within the hippocampus there are three interconnected subregions referred to collectively as the ‘Trisynaptic Circuit.’ This circuit consists of the dentate gyrus (DG), area CA3, and area CA1, each having distinct physiological roles. The DG “filters” out aberrant or excessive input to the hippocampus and limits this activity from propagating further along the hippocampal circuit. […]\nIt is believed that the DG acts as a filter because it is extraordinarily resistant to the generation of synchronized bursting characteristic of epileptic seizures. […] Making use of fluorescent voltage sensitive dyes as a measure of hippocampal neuronal activity, a straightforward relationship has been devised in order to quantify the efficacy of dentate gyrus filtering capacity. “Throughput Index” (TI) is defined as the amount of fluorescence in the hilus divided by the fluorescence in the upper (suprapyramidal) blade of the dentate gyrus induced by afferent (perforant path) stimulation. […]"}}, "data": [{"compound": "NCCCC(=O)O", "note": "[GABA, gamma-aminobutyric acid]", "values": [{"measurement": "membrane potential response to iontophoresed GABA", "setting": "dentate granule cells; DG neurons from naïve or sham animals, GABA 100 μM", "result": "−14±0.7", "unit": "mV"}, {"measurement": "membrane potential response to iontophoresed GABA", "setting": "dentate granule cells; DG neurons in slices from injured (FPI) animals", "result": "depolarizing response"}]}, {"compound": "CCCC(=O)O[C@@H]1[C@@H](C)[C@@]2(O)[C@@H](C=C(CO)C[C@]3(O)C(=O)C(C)=C[C@@H]23)[C@@H]2C(C)(C)[C@]12OC(=O)CCC", "note": "[PDBu, phorbol 12,13-dibutyrate]", "values": [{"measurement": "effect on dentate gyrus throughput index (TI)", "setting": "dentate gyrus; slices from brain injured (FPI) animals", "result": "significantly (p<0.05) reduces"}, {"measurement": "effect on DG filtering (TI)", "setting": "dentate gyrus; slices from sham animals", "result": "does not affect"}]}, {"compound": "CCCCNc1cc(C(=O)O)cc(S(N)(=O)=O)c1Oc1ccccc1", "note": "[bumetanide]", "values": [{"measurement": "GABA response in the presence of bumetanide compared to GABA alone", "setting": "dentate granule cells; slices from sham animals, bumetanide 10 μM", "result": 39, "unit": "%"}, {"measurement": "response to focally applied GABA in the presence of bumetanide", "setting": "dentate granule cells; slices from sham animals, bumetanide 10 μM bath applied, n=15", "result": "−5±3.1", "unit": "mV"}]}]}
